Numbered stars: 1 amine (or outer) side, 2 acyl side, 3 side chain; on linkers, the order of the positions; unused ones are H or OH. Square brackets hold non-standard residues; d marks the D form. Peptide text beside a SMILES is read from it. * marks the point of attachment. X2 = C[C@@H](O)[C@H](O)[C@H](N[*:1])C(=O)[*:2]; X1 = O=C([C@@H](N[*:1])[C@@H](O)CCO)[*:2]; NMeW = CN[C@@H](Cc1c[nH]c2ccccc12)C(=O)O; NMeI = CC[C@H](C)[C@H](NC)C(=O)O; NMeT = CN[C@H](C(=O)O)[C@@H](C)O; NMeQ = CN[C@@H](CCC(N)=O)C(=O)O; NMeV = CN[C@H](C(=O)O)C(C)C; Valol = CC(C)[C@@H](CO)N*

The target in the first assay is T1, Membrane-associated guanylate kinase, WW and PDZ domain-containing protein 3 (Homo sapiens, UniProt Q5TCQ9).
T1 sequence (Q5TCQ9 whole entry): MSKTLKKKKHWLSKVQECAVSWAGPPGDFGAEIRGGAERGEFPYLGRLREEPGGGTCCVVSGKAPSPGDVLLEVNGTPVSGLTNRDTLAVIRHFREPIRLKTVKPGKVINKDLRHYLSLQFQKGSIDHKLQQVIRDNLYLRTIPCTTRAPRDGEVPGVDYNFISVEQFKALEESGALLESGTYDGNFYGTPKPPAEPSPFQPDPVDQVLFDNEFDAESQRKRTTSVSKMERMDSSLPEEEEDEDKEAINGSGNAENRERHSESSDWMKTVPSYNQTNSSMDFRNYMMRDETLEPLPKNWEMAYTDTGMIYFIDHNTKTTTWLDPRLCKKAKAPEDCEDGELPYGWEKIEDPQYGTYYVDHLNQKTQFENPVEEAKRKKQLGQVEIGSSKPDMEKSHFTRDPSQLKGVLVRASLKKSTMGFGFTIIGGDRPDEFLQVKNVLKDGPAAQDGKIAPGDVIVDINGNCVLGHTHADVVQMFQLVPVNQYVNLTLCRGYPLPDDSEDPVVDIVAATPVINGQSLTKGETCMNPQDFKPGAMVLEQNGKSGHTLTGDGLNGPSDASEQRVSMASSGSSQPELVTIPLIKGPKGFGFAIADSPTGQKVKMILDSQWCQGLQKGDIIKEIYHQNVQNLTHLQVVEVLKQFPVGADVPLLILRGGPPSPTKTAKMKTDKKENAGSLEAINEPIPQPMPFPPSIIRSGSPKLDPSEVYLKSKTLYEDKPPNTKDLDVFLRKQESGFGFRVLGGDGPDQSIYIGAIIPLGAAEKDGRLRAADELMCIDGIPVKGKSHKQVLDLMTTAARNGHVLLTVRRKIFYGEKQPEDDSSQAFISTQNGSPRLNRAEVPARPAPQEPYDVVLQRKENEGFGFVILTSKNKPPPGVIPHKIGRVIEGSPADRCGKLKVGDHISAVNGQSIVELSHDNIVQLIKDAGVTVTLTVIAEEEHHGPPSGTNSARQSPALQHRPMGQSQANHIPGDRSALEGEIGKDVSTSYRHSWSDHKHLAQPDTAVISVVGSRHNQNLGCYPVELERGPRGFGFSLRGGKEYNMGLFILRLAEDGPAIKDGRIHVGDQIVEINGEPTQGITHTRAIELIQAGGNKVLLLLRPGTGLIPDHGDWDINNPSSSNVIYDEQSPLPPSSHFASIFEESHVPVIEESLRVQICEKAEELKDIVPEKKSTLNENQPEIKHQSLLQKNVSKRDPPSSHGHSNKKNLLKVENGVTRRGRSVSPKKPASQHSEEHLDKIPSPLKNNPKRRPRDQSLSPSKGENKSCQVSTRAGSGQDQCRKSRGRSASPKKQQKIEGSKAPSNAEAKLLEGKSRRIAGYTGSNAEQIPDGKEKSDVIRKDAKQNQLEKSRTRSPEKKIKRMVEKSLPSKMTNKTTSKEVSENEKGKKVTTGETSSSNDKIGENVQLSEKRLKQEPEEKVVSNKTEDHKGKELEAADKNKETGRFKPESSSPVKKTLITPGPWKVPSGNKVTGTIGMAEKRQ
The assay is described as follows: Inhibitory concentration for MAGI-3 PDZ2 domain.
Take `CC[C@H](C)[C@H](NC(=O)[C@H](CCC(N)=O)NC(=O)[C@@H](NC(C)=O)[C@H](C)O)C(=O)NC(C(=O)N[C@@H](Cc1cn(C)c2ccccc12)C(=O)N[C@H](C(=O)O)C(C)C)[C@H](C)O` (single isomer, unassigned): inhibition was half-maximal at 34 µM (IC50).
On the same count and under the same terms, in the case of `CC[C@H](C)[C@H](NC(=O)[C@H](CCC(N)=O)N(C)C(=O)[C@@H](NC(C)=O)[C@@H](C)O)C(=O)N[C@H](C(=O)N[C@@H](Cc1c[nH]c2ccccc12)C(=O)N[C@H](C(=O)O)C(C)C)[C@@H](C)O` (Ac-T[NMeQ]ITWV-OH) it was 9.8 µM; in that of `CC[C@H](C)[C@H](NC(=O)[C@H](CCC(N)=O)NC(=O)[C@@H](NC(C)=O)[C@@H](C)O)C(=O)N[C@H](C(=O)N(C)[C@@H](Cc1c[nH]c2ccccc12)C(=O)N[C@H](C(=O)O)C(C)C)[C@@H](C)O` (Ac-TQIT[NMeW]V-OH), 10.6 µM; in that of H-PFDEDQHTQITWV-OH, 0.74 µM.
Same read-out and setting: in the case of Ac-HTQITWV-OH it was 4.1 µM; in that of `CC[C@H](C)[C@H](NC(=O)[C@H](CCC(N)=O)NC(=O)[C@@H](NC(C)=O)[C@H](C)O)C(=O)N[C@@H](C(=O)N[C@@H](Cc1c[nH]c2ccccc12)C(=O)N[C@H](C(=O)NO)C(C)C)[C@H](C)O`, 42.1 µM; in that of H-PFDEDQHTQIAKV-OH [PFDEDQHTQIAKV], 14.4 µM.
Turning to `CC[C@H](C)[C@H](NC(C)=O)C(=O)N[C@H](C(=O)N[C@@H](Cc1c[nH]c2ccccc12)C(=O)N[C@H](C(=O)O)C(C)C)[C@@H](C)O` (Ac-ITWV-OH), 14.8 µM corresponded to half-maximal inhibition (IC50).
With Ac-TQITWV-OH, it took 5.2 µM to reach half-maximal inhibition (IC50).
Regarding `CC[C@H](C)[C@H](NC(=O)[C@H](CCC(N)=O)NC(=O)[C@@H](NC(C)=O)[C@@H](C)O)C(=O)NC(C(=O)N[C@@H](Cc1c[nH]c2ccccc12)C(=O)N[C@H](C(=O)O)C(C)C)[C@@H](O)CO` (single isomer, unassigned), inhibition was half-maximal at 5.1 µM (IC50).
Same read-out and setting: in the case of `CC[C@H](C)[C@@H](C(=O)N[C@H](C(=O)N[C@@H](Cc1c[nH]c2ccccc12)C(=O)N[C@H](C(=O)O)C(C)C)[C@@H](C)O)N(C)C(=O)[C@H](CCC(N)=O)NC(=O)[C@@H](NC(C)=O)[C@@H](C)O` (Ac-TQ[NMeI]TWV-OH) it was 20.4 µM; in that of Ac-QITWV-OH, 4.5 µM.
In the case of `CC[C@H](C)[C@H](NC(=O)[C@H](CCC(N)=O)NC(=O)[C@@H](NC(C)=O)[C@@H](C)O)C(=O)N(C)[C@H](C(=O)N[C@@H](Cc1c[nH]c2ccccc12)C(=O)N[C@H](C(=O)O)C(C)C)[C@@H](C)O` (Ac-TQI[NMeT]WV-OH), 29 µM corresponded to half-maximal inhibition (IC50).

The next assay addresses T1, Membrane-associated guanylate kinase, WW and PDZ domain-containing protein 3. The assay is described as follows: Inhibitory concentration for MAGI-3 PDZ2 domain; ND denotes not detected.
Turning to `CC[C@H](C)[C@H](NC(=O)[C@H](CCC(N)=O)NC(=O)[C@@H](NC(C)=O)[C@@H](C)O)C(=O)N[C@H](C(=O)N[C@@H](Cc1c[nH]c2ccccc12)C(=O)N(C)[C@H](C(=O)O)C(C)C)[C@@H](C)O` (Ac-TQITW[NMeV]-OH), the IC50 – broadly, the concentration needed to halve the response being measured – is “Not detected”.
Still for that read-out and setting: in the case of `CCC(O)[C@H](O)C(NC(=O)[C@@H](NC(=O)[C@H](CCC(N)=O)NC(=O)[C@@H](NC(C)=O)[C@@H](C)O)[C@@H](C)CC)C(=O)N[C@@H](Cc1c[nH]c2ccccc12)C(=O)N[C@H](C(=O)O)C(C)C` (single isomer, unassigned) it was “Not detected”; in that of `CC[C@H](C)[C@H](NC(=O)[C@H](CCC(N)=O)NC(=O)[C@@H](NC(C)=O)[C@H](C)O)C(=O)NC(C(=O)N[C@@H](Cc1c[nH]c2ccccc12)C(=O)N[C@H](C(=O)O)C(C)C)[C@@H](O)C(C)(C)O` (single isomer, unassigned), “Not detected”.
On the same count and under the same terms, the same measure for `CC[C@H](C)[C@H](NC(=O)[C@H](CCC(N)=O)NC(=O)[C@@H](NC(C)=O)[C@@H](C)O)C(=O)N[C@H](C(=O)N[C@@H](Cc1c[nH]c2ccccc12)C(=O)N[C@H](CO)C(C)C)[C@@H](C)O` (Ac-TQITW-Valol): “Not detected”.
Same read-out and setting: the same measure for `CC[C@H](C)[C@H](NC(=O)[C@H](CCC(N)=O)NC(=O)[C@@H](NC(C)=O)[C@@H](C)O)C(=O)N[C@H](C(=O)N[C@@H](Cc1c[nH]c2ccccc12)C(=O)N[C@H](C(=O)O)C(C)C)[C@@H](O)CCO` (Ac-TQI[X1]WV-OH): “Not detected”; for `CC[C@H](C)[C@H](NC(=O)[C@H](CCC(N)=O)NC(=O)[C@@H](NC(C)=O)[C@@H](C)O)C(=O)N[C@H](C(=O)N[C@@H](Cc1c[nH]c2ccccc12)C(=O)N[C@H](C(=O)O)C(C)C)[C@@H](O)[C@@H](C)O` (Ac-TQI[X2]WV-OH): “Not detected”.

A further assay shares this target. The assay is described as follows: Dissociation constant for binding to MAGI-3 PDZ2 domain.
As to H-PFDEDQHTQITWV-OH, the Kd (as a rule, a measure of binding affinity in units of concentration) is 0.02 µM.
The compound H-PFDEDQHTQITKV-OH returned a dissociation constant (Kd) of 1 µM.

The record behind these values is ChEMBL document CHEMBL1135310, “Investigation of the PDZ domain ligand binding site using chemically modified peptides” (Bioorg Med Chem Lett, 2002).
